Measurements reported in patent US11364211B2, “Methods for selecting phosphatase selective and non-selective phosphatase inhibitors” (MEDICAL RESEARCH COUNCIL, priority 2015, dated 2022).
Entries after “also recorded” stand apart in the source; their conditions may differ.

How the values were obtained:
PP1c = PP1c (Homo sapiens, UniProt P36873); assay: PP1c catalytic activity assay (EnzChek); type: biochemical; conditions: purified PP1c 30 nM, 30 minutes at 4° C.
Description: Residual activity of PP1c was then measured using the EnzChek Phosphatase Assay Kit (Thermo Fisher Scientific) according to the supplier's instructions.

[1] = test system: eIF2α phosphorylation in HeLa cells; assay: eIF2α phosphorylation in cells in the absence of stress (immunoblot); type: cell-based, human; conditions: for eIF2α phosphorylation in the absence of stress: human/HeLa cells, basal conditions, TST3 at 10 μM
Description: For immunoblots, HeLa cells (80,000 cells/ml) were plated in 12-well plates 24 hours before each experiment. Immediately after the indicated treatments, cells were lysed in 75 μl Laemmli Buffer, boiled at 95° C. for 5 minutes and sonicated. Proteins were separated and analysed as described (Tsaytler et al., Science, 332, 91-94, 2011) with the following antibodies: phospho-elf2α [pS52] and PPP1R15A/GADD34 (10449-1-AP; ProteinTech Group, 1/1000 dilution).
Human cells were treated with a PPP1R15B inhibitor and eIF2α phosphorylation was monitored over time. […] This was manifested between 1 and 7.5 hours after addition of the compound of Example 1. […] Indeed, the inventors noticed that PPP1R15A was induced at the late time points following addition of the compound of Example 1 (see Assay 3). […] Furthermore, this establishes that the compound of Example 1 spares PPP1R15A. This assay can serve to identify other selective PPP1R15B inhibitors.
Cells (90,000 cells/ml) were plated in a 24-well plate and treated as indicated. At the end of treatment cells were lysed in 150 μl Laemmli Buffer. Lysates were boiled at 95° C. for 5 minutes, sonicated and resolved on 4-12% Bolt Bis-Tris Plus Gels (Thermo Fisher Scientific). Proteins were transferred to the nitrocellulose membrane using the iBlot 2 system (Thermo Fisher Scientific) and analysed using the following antibodies: e-IF2α-P (44-728G, Thermo Fisher Scientific, 1:1000), e-IF2α (ab5369, Abcam, 1:1000), tubulin (T5168, Sigma-Aldrich, 1:4000), BiP (610978, BD Biosciences Pharmingen, 1:1000), ATF4 (sc-200, Santa Cruz Biotechnology, 1:500), Ppp1r15a (10449-1-AP, Proteintech, 1:1000) and Ppp1r15b (14634-1-AP, Proteintech, 1:1000). Proteins were visualized using ECL Prime (GE Healthcare).

[2] = Guanabenz-like side effects: mouse activity after acute dosing; type: in vivo; conditions: 10 mg/kg oral gavage, 30 minutes following dosing
Description: To assess whether of a compound of Example 1 had the side effects of Guanabenz, mice (n>3) were gavaged orally with 10 mg/kg of compound or Guanabenz. Their activity was monitored 30 minutes following dosing.
In order to assess the GBZ-like side effects (due to the adrenergic activity) of treatment the motor performance of mice was monitored after a single administration of TST3. To this end mice were treated with TST3 and left in a cage for 60 minutes. Mice behaviour was monitored every 15 minutes. Mice similarly treated with GBZ were used as a control.

HeLa cells = assay: Translation rates by 35S-methionine labelling in HeLa cells; type: cell-based, human; conditions: for protein synthesis / translation rates: basal conditions, 10 μM
Description: Cells (90,000 cells/ml) were plated in 12-well plates, treated as indicated, labelled with 100 μCi/ml ^35S-methionine (Hartmann Analytic) for 10 minutes at 37° C., washed with ice-cold PBS and lysed in 120 μl Laemmli Buffer. Lysates were boiled at 95° C. for 5 minutes, sonicated and resolved on 4-12% Bolt Bis-Tris Plus Gels (Thermo Fisher Scientific). Gels were then stained with InstantBlue (Expedeon) and analyzed by phosphorimaging.

PP1c, sequence (P36873 whole entry): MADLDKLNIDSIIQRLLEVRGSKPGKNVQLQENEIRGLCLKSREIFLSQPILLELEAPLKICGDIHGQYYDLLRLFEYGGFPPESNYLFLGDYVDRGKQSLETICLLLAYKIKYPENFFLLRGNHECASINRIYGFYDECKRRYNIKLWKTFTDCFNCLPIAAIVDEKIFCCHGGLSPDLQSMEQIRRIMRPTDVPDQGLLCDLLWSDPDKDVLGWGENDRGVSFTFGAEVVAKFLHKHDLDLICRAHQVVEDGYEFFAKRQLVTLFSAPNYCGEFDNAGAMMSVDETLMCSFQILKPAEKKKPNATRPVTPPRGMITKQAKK

inhibition of PP1c in enzymatic assay (PP1c) | Structure (SMILES) | eIF2α phosphorylation in the absence of stress [1] | side effects of Guanabenz / activity of mice after dosing [2] | protein synthesis / translation rates (HeLa cells) | inhibition of PP1c in enzymatic assay (PP1c; listed as TST3) | eIF2α phosphorylation in the presence of GBZ ([1]; HeLa cells, TST3+GBZ at 10 μM) | time after addition at which eIF2α phosphorylation returned to basal levels ([1]; absence of stress) [h] | eIF2α phosphorylation in the absence of stress ([1]; listed as TST3) | side effects of Guanabenz / activity of mice after dosing ([2]; 10 mg/kg) | protein synthesis in the presence of GBZ (HeLa cells; TST3+/- GBZ at 10 μM) | protein synthesis / translation rates (HeLa cells; listed as TST3)
does not inhibit PP1c | N=C(N)N/N=C/c1c(Cl)cccc1Cl [Guanabenz, reference compound] | did not affect | did not move | did not affect |  |  |  |  |  |  | 
 | [H]/N=C(\N)NN=Cc1cccc(Cl)c1Cl [Example 1, (E)-2-(2,3-dichlorobenzylidene)hydrazine-1-carboximidamide] | induced eIF2α phosphorylation; also recorded: induces a transient phosphorylation of eIF2α |  |  | does not inhibit PP1c; also recorded: doesn't inhibit PP1 | persistently induces eIF2α phosphorylation; also recorded: rendered persistent | 10 | transiently induces eIF2α phosphorylation; also recorded: rapidly and transiently increased eIF2α phosphorylation | as active as untreated mice; also recorded: devoid of the side effects of Guanabenz; also recorded: does not cause the side effects of Guanabenz | persistently inhibits protein synthesis; also recorded: rendered persistent | transiently reduces protein synthesis; also recorded: rapidly and transiently decreased
